Reference: US20250223268A1, “4-Methylsulfonylbenzamide Compound, Preparation Method, Herbicidal Composition And Use” (Jiangsu Flag Chemical Industry Co., Ltd., priority 2022, published 2025)

Assays:
Assay in all cases: Greenhouse herbicidal activity assay, post-emergence
Type in all cases: in vivo
Conditions in all cases: Post-emergence test, rate 150 g a.i./hm^2, grade by fresh weight inhibition rate
[1] = test system: Cyperus iria
How it was run: (§1)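 Scores reflect fresh weight inhibition assessed 14-21 days after treatment, with grade A meaning ≥80% to 100% and grade E meaning <20%. Plants, raised in nutrient-soil pots inside a growth chamber, were sprayed on the foliage at the 3-6 leaf stage.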

[2] = test system: Echinochloa crusgalli
How it was run: as §1

[3] = test system: Digitaria sanguinalis
How it was run: as §1

[4] = test system: Eclipta prostrata
How it was run: as §1

[5] = test system: Leptochloa chinensis
How it was run: as §1

Row | Structure (SMILES) | Control efficacy grade, Cyperus iria [1] | Control efficacy grade, Echinochloa crusgalli [2] | Control efficacy grade, Digitaria sanguinalis [3] | Control efficacy grade, Eclipta prostrata [4] | Control efficacy grade, Leptochloa chinensis [5] | pest or weed control at 150 g/ha ([1]; Cyperus iria, read-out: Control efficacy grade, Cyperus iria) [%] | pest or weed control at 150 g/ha ([2]; Echinochloa crus-galli, read-out: Control efficacy grade, Echinochloa crusgalli) [%] | pest or weed control at 150 g/ha ([3]; Digitaria sanguinalis, read-out: Control efficacy grade, Digitaria sanguinalis) [%] | pest or weed control at 150 g/ha ([4]; Eclipta prostrata, read-out: Control efficacy grade, Eclipta prostrata) [%] | pest or weed control at 150 g/ha ([5]; Dinebra chinensis, read-out: Control efficacy grade, Leptochloa chinensis) [%]
1 | CS(=O)(=O)c1ccc(C(=O)Nc2nnc(C3CC3)o2)c(Cl)c1SC1CC1 [Compound 3-651] | A (Fresh weight inhibition rate≥80% to 100%) | A (Fresh weight inhibition rate≥80% to 100%) | A (Fresh weight inhibition rate≥80% to 100%) | A (Fresh weight inhibition rate≥80% to 100%) | A (Fresh weight inhibition rate≥80% to 100%) | – | – | – | – | –
2 | CS(=O)(=O)c1ccc(C(=O)Nc2nnc(C3CC3)o2)c(Cl)c1[S+]([O-])C(F)(F)C(F)(F)F (racemic) [Compound 3-692] | A (Fresh weight inhibition rate≥80% to 100%) | A (Fresh weight inhibition rate≥80% to 100%) | A (Fresh weight inhibition rate≥80% to 100%) | A (Fresh weight inhibition rate≥80% to 100%) | A (Fresh weight inhibition rate≥80% to 100%) | – | – | – | – | –
3 | CCCC[S+]([O-])c1c(S(C)(=O)=O)ccc(C(=O)Nc2ncnn2C)c1Cl (racemic) [Compound 2-12] | A (Fresh weight inhibition rate≥80% to 100%) | A (Fresh weight inhibition rate≥80% to 100%) | A (Fresh weight inhibition rate≥80% to 100%) | A (Fresh weight inhibition rate≥80% to 100%) | A (Fresh weight inhibition rate≥80% to 100%) | – | – | – | – | –
4 | CCc1nnc(NC(=O)c2ccc(S(C)(=O)=O)c([S+]([O-])C3CCCCC3)c2Cl)o1 (racemic) [Compound 3-435] | A (Fresh weight inhibition rate≥80% to 100%) | A (Fresh weight inhibition rate≥80% to 100%) | A (Fresh weight inhibition rate≥80% to 100%) | A (Fresh weight inhibition rate≥80% to 100%) | A (Fresh weight inhibition rate≥80% to 100%) | – | – | – | – | –
5 | CCn1nnnc1NC(=O)c1ccc(S(C)(=O)=O)c([S+]([O-])C(C)C)c1Cl (stereo not drawn) [Compound 1-93, 2-chloro-N-(1-ethyl-1H-tetrazol-5-yl)-3-(isopropylsulfinyl)-4-(methylsulfonyl)benzamide] | – | – | – | – | – | 80 to 100 | 80 to 100 | 80 to 100 | 80 to 100 | 80 to 100
6 | CCCC[S+]([O-])c1c(S(C)(=O)=O)ccc(C(=O)Nc2nnc(C3CC3)o2)c1Cl (racemic) [Compound 3-626] | A (Fresh weight inhibition rate≥80% to 100%) | A (Fresh weight inhibition rate≥80% to 100%) | A (Fresh weight inhibition rate≥80% to 100%) | A (Fresh weight inhibition rate≥80% to 100%) | A (Fresh weight inhibition rate≥80% to 100%) | – | – | – | – | –
7 | CS(=O)(=O)c1ccc(C(=O)Nc2nnco2)c(Cl)c1[S+]([O-])C1CCCCC1 (racemic) [Compound 3-319] | A (Fresh weight inhibition rate≥80% to 100%) | A (Fresh weight inhibition rate≥80% to 100%) | A (Fresh weight inhibition rate≥80% to 100%) | A (Fresh weight inhibition rate≥80% to 100%) | A (Fresh weight inhibition rate≥80% to 100%) | – | – | – | – | –
8 | Cc1nonc1NC(=O)c1ccc(S(C)(=O)=O)c([S+]([O-])C2CCC2)c1Cl (racemic) [Compound 4-43] | A (Fresh weight inhibition rate≥80% to 100%) | A (Fresh weight inhibition rate≥80% to 100%) | A (Fresh weight inhibition rate≥80% to 100%) | A (Fresh weight inhibition rate≥80% to 100%) | A (Fresh weight inhibition rate≥80% to 100%) | – | – | – | – | –
9 | CCc1nnc(NC(=O)c2ccc(S(C)(=O)=O)c(SCC3CC3)c2Cl)o1 [Compound 3-414] | A (Fresh weight inhibition rate≥80% to 100%) | A (Fresh weight inhibition rate≥80% to 100%) | A (Fresh weight inhibition rate≥80% to 100%) | A (Fresh weight inhibition rate≥80% to 100%) | A (Fresh weight inhibition rate≥80% to 100%) | – | – | – | – | –
10 | CCCC[S+]([O-])c1c(S(C)(=O)=O)ccc(C(=O)Nc2nnc(C)o2)c1Cl (racemic) [Compound 3-12] | A (Fresh weight inhibition rate≥80% to 100%) | A (Fresh weight inhibition rate≥80% to 100%) | A (Fresh weight inhibition rate≥80% to 100%) | A (Fresh weight inhibition rate≥80% to 100%) | A (Fresh weight inhibition rate≥80% to 100%) | – | – | – | – | –
11 | CC(C)CSc1c(S(C)(=O)=O)ccc(C(=O)Nc2nnco2)c1Cl [Compound 3-293] | A (Fresh weight inhibition rate≥80% to 100%) | A (Fresh weight inhibition rate≥80% to 100%) | A (Fresh weight inhibition rate≥80% to 100%) | A (Fresh weight inhibition rate≥80% to 100%) | A (Fresh weight inhibition rate≥80% to 100%) | – | – | – | – | –
12 | CC(C)[S+]([O-])c1c(S(C)(=O)=O)ccc(C(=O)Nc2nnn[nH]2)c1Cl (racemic) [Compound 1-83] | A (Fresh weight inhibition rate≥80% to 100%) | A (Fresh weight inhibition rate≥80% to 100%) | A (Fresh weight inhibition rate≥80% to 100%) | A (Fresh weight inhibition rate≥80% to 100%) | A (Fresh weight inhibition rate≥80% to 100%) | – | – | – | – | –
13 | CCC(C)S(=O)(=O)c1c(S(C)(=O)=O)ccc(C(=O)Nc2ncnn2C)c1Cl (racemic) [Compound 2-24] | A (Fresh weight inhibition rate≥80% to 100%) | A (Fresh weight inhibition rate≥80% to 100%) | A (Fresh weight inhibition rate≥80% to 100%) | A (Fresh weight inhibition rate≥80% to 100%) | A (Fresh weight inhibition rate≥80% to 100%) | – | – | – | – | –
14 | CCCC[S+]([O-])c1c(S(C)(=O)=O)ccc(C(=O)Nc2nonc2C)c1Cl (racemic) [Compound 4-12] | A (Fresh weight inhibition rate≥80% to 100%) | A (Fresh weight inhibition rate≥80% to 100%) | A (Fresh weight inhibition rate≥80% to 100%) | A (Fresh weight inhibition rate≥80% to 100%) | B (Fresh weight inhibition rate≥260% to <80%) | – | – | – | – | –
15 | CCCSc1c(S(C)(=O)=O)ccc(C(=O)Nc2nnc(CC)o2)c1Cl [Compound 3-383] | A (Fresh weight inhibition rate≥80% to 100%) | A (Fresh weight inhibition rate≥80% to 100%) | B (Fresh weight inhibition rate≥260% to <80%) | A (Fresh weight inhibition rate≥80% to 100%) | B (Fresh weight inhibition rate≥260% to <80%) | – | – | – | – | –
16 | CC(C)[S+]([O-])c1c(S(C)(=O)=O)ccc(C(=O)Nc2nnc(C3CC3)o2)c1Cl (single isomer, unassigned) [Compound 3-623] | A (Fresh weight inhibition rate≥80% to 100%) | A (Fresh weight inhibition rate≥80% to 100%) | A (Fresh weight inhibition rate≥80% to 100%) | A (Fresh weight inhibition rate≥80% to 100%) | A (Fresh weight inhibition rate≥80% to 100%) | – | – | – | – | –
17 | CCC[S+]([O-])c1c(S(C)(=O)=O)ccc(C(=O)Nc2nnc(CC)o2)c1Cl (racemic) [Compound 3-384] | A (Fresh weight inhibition rate≥80% to 100%) | A (Fresh weight inhibition rate≥80% to 100%) | A (Fresh weight inhibition rate≥80% to 100%) | A (Fresh weight inhibition rate≥80% to 100%) | A (Fresh weight inhibition rate≥80% to 100%) | – | – | – | – | –
18 | CS(=O)(=O)c1ccc(C(=O)Nc2nnco2)c(Cl)c1SC1CCCC1 [Compound 3-313] | A (Fresh weight inhibition rate≥80% to 100%) | A (Fresh weight inhibition rate≥80% to 100%) | A (Fresh weight inhibition rate≥80% to 100%) | A (Fresh weight inhibition rate≥80% to 100%) | A (Fresh weight inhibition rate≥80% to 100%) | – | – | – | – | –
